This note sets out measurements from patent US20240384268A1, “Oligonucleotides” (Hudson Institute of Medical Research, priority 2021, published 2024).

In the oligonucleotide strings, read from the 5' end, every base follows the letter of its sugar. An asterisk marks phosphorothioate; unmarked linkages are phosphodiester. Other units and linkages are bracketed, terminal groups are in braces. A string of capitals states the bases alone. d = 2'-deoxy (DNA); m = 2'-O-methyl

The data set addresses T1, TLR8 (Homo sapiens, UniProt Q9NR97).
T1 sequence (Q9NR97 27-1041): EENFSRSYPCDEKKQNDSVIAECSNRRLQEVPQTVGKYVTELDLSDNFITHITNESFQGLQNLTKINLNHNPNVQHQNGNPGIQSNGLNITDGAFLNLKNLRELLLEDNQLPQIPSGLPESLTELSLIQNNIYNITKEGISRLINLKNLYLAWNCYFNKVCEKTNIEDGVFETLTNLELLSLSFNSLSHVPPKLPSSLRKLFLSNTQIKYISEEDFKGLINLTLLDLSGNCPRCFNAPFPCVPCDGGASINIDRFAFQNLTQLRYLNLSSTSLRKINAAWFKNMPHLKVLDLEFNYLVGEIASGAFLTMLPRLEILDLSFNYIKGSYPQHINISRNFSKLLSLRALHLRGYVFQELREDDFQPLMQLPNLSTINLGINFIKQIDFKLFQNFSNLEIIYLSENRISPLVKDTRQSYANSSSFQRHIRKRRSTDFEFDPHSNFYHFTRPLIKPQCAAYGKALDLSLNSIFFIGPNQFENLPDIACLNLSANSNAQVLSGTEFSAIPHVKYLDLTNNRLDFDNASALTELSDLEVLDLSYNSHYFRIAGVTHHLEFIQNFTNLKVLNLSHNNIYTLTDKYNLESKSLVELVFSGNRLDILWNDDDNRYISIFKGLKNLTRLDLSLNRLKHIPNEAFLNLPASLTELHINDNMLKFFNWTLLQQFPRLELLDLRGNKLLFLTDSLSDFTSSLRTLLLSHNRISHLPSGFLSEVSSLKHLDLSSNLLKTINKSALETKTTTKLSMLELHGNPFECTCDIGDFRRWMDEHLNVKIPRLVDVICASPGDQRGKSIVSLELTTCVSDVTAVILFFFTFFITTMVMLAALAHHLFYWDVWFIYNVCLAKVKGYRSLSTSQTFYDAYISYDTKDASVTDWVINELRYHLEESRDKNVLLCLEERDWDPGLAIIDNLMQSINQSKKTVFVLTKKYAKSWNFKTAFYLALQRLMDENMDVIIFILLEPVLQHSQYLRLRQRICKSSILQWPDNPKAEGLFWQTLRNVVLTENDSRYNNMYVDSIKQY
Briefly: HEK-TLR8 NF-κB-luciferase reporter, R848 or Motolimod stimulation (potentiation or inhibition). In kind it is cell-based. The arrangement: expressed in transfected cells; host or cells: 293XLhTLR8 (HEK293). The following applies: for TLR8 100 nM (averaged NF-κB-Luciferase level relative to R848 condition, fold increase): ASO 100 nM; for TLR8 100 nM (averaged NF-κB-Luciferase level relative to R848 condition, fold increase) / TLR8 500 nM (averaged NF-κB-Luciferase level relative to R848 condition, fold increase): relative to R848 only; for TLR8 500 nM (averaged NF-κB-Luciferase level relative to R848 condition, fold increase): ASO 500 nM; for TLR8-500 nM: averaged NF-κB-Luciferase relative to R848: 500 nM ASO, fold increase relative to R848 without ASO (Alharbi et al., 2020). (A reporter such as luciferase makes a cellular process visible.)

Take “TGCTCCTCGGTCTCCC (antisense; LNA-modified, pattern not given here) [CAMSAP1-1850 LNA V1]”: the “TLR8 100 nM (averaged NF-κB-Luciferase level relative to R848 condition, fold increase)” value amounted to 1.097 and the “TLR8 500 nM (averaged NF-κB-Luciferase level relative to R848 condition, fold increase)” value is 4.771. Take “TGGTCCACAACCCCTT (antisense; LNA-modified, pattern not given here) [MB21D1-697 LNA V1]”: the “TLR8 100 nM (averaged NF-κB-Luciferase level relative to R848 condition, fold increase)” value was found to be 0.559 and the “TLR8 500 nM (averaged NF-κB-Luciferase level relative to R848 condition, fold increase)” value came out at 1.454. On to “TGGTGGCCACCCATCT (antisense; LNA-modified, pattern not given here) [CTNN2B-2479 LNA V1]”, for which the “TLR8 100 nM (averaged NF-κB-Luciferase level relative to R848 condition, fold increase)” value is 0.464 and the “TLR8 500 nM (averaged NF-κB-Luciferase level relative to R848 condition, fold increase)” value is listed as 0.604.

Take “TGTCCTTGCACGTGGC (antisense; LNA-modified, pattern not given here) [EGFR-1016 LNA V1]”: the “TLR8 100 nM (averaged NF-κB-Luciferase level relative to R848 condition, fold increase)” value is 0.636 and the “TLR8 500 nM (averaged NF-κB-Luciferase level relative to R848 condition, fold increase)” value was 1.158. Taken in the same sequence, the figures for “TGTCTGGAAGCTTCCT (antisense; LNA-modified, pattern not given here) [CTNN2B-808 LNA V1]” were 0.600 and 0.871. Consider “TTCAGGCGCTGCCTTG (antisense; LNA-modified, pattern not given here) [CAMSAP1-2709 LNA V1]”, for which the “TLR8 100 nM (averaged NF-κB-Luciferase level relative to R848 condition, fold increase)” value amounted to 0.479 and the “TLR8 500 nM (averaged NF-κB-Luciferase level relative to R848 condition, fold increase)” value was 0.764. As for “mA*mA*mA*mG*mC*A*G*T*C*T*C*C*A*T*G*mU*mC*mC*mC*mA (mA*mA*mA*mG*mC*dA*dG*dT*dC*dT*dC*dC*dA*dT*dG*mU*mC*mC*mC*mA; antisense) [[CDKN2B-AS1]2237]”, the “TLR8-500 nM: averaged NF-κB-Luciferase relative to R848” value (HEK-TLR8) turned out to be 3.38 fold.

Regarding “mA*mA*mG*mC*mA*G*T*C*T*C*C*A*T*G*T*mC*mC*mC*mA*mG (mA*mA*mG*mC*mA*dG*dT*dC*dT*dC*dC*dA*dT*dG*dT*mC*mC*mC*mA*mG; antisense) [[CDKN2B-AS1]2236]”, where the note is “HEK-TLR8”, the “TLR8-500 nM: averaged NF-κB-Luciferase relative to R848” value was determined as 2.62 fold. “mA*mG*mC*mA*mG*T*C*T*C*C*A*T*G*T*C*mC*mC*mA*mG*mG (AGCAGTCTCCATGTCCCAGG; antisense; sugars from the 5' end m5 d10 m5, all phosphorothioate, methylation of C not given here) [[CDKN2B-AS1]2235]”: where the note is “HEK-TLR8”, the “TLR8-500 nM: averaged NF-κB-Luciferase relative to R848” value is given as 4.93 fold. Consider “mA*mG*mU*mC*mU*C*C*A*T*G*T*C*C*C*A*mG*mG*mC*mC*mU (mA*mG*mU*mC*mU*dC*dC*dA*dT*dG*dT*dC*dC*dC*dA*mG*mG*mC*mC*mU; antisense) [[CDKN2B-AS1]2232]”, for which the “TLR8-500 nM: averaged NF-κB-Luciferase relative to R848” value (HEK-TLR8) worked out at 2.28 fold. Still for that read-out and setting: the result for “mA*mG*mU*mG*mG*C*A*C*A*T*A*C*C*A*C*mA*mC*mC*mC*mU (AGUGGCACATACCACACCCU; antisense; sugars from the 5' end m5 d10 m5, all phosphorothioate, methylation of C not given here) [[CDKN2B-AS1]495]” reads 4.48 fold; that for “mA*mU*mU*mU*mC*C*A*C*A*T*G*C*C*C*A*mG*mU*mG*mU*mU (AUUUCCACATGCCCAGUGUU; antisense; sugars from the 5' end m5 d10 m5, all phosphorothioate, methylation of C not given here) [[CDKN2B-AS1]626]”, 4.09 fold.

As to “mC*mA*mG*mU*mC*T*C*C*A*T*G*T*C*C*C*mA*mG*mG*mC*mC (mC*mA*mG*mU*mC*dT*dC*dC*dA*dT*dG*dT*dC*dC*dC*mA*mG*mG*mC*mC; antisense) [[CDKN2B-AS1]2233]”, the “TLR8-500 nM: averaged NF-κB-Luciferase relative to R848” value (HEK-TLR8) stood at 3.81 fold.

With “mC*mA*mG*mU*mG*T*T*T*T*T*A*A*T*T*T*mU*mG*mU*mA*mG (mC*mA*mG*mU*mG*dT*dT*dT*dT*dT*dA*dA*dT*dT*dT*mU*mG*mU*mA*mG; antisense) [[CDKN2B-AS1]613]”, under “HEK-TLR8”, the “TLR8-500 nM: averaged NF-κB-Luciferase relative to R848” value came to 6.73 fold. “mC*mU*mU*mG*mU*G*A*A*A*A*G*A*T*T*A*mU*mC*mU*mU*mC (mC*mU*mU*mG*mU*dG*dA*dA*dA*dA*dG*dA*dT*dT*dA*mU*mC*mU*mU*mC) [[CDKN2B-AS1]2139]”: for the setting “HEK-TLR8”, the “TLR8-500 nM: averaged NF-κB-Luciferase relative to R848” value is 6.02 fold. On to “mG*mC*mA*mG*mU*C*T*C*C*A*T*G*T*C*C*mC*mA*mG*mG*mC (GCAGUCTCCATGTCCCAGGC; antisense; sugars from the 5' end m5 d10 m5, all phosphorothioate, methylation of C not given here) [[CDKN2B-AS1]2234]”, for which the “TLR8 potentiation of R848 sensing, 20-mer ASOs (in words)” value (HEK-TLR8, 500 nM ASO ~30 min, R848 overnight) is “weak potentiator of TLR8”. The “TLR8-500 nM: averaged NF-κB-Luciferase relative to R848” value (HEK-TLR8) was 2.25 fold. On to “mG*mU*mC*mU*mC*C*A*T*G*T*C*C*C*A*G*mG*mC*mC*mU*mC (mG*mU*mC*mU*mC*dC*dA*dT*dG*dT*dC*dC*dC*dA*dG*mG*mC*mC*mU*mC) [[CDKN2B;AS1]2231]”, for which the “TLR8-500 nM: averaged NF-κB-Luciferase relative to R848” value (HEK-TLR8) is listed as 1.25 fold.

In the case of “mG*mU*mG*mU*mC*C*T*T*C*A*T*G*C*T*T*mU*mG*mG*mA*mU (GUGUCCTTCATGCTTUGGAU; antisense; sugars from the 5' end m5 d10 m5, all phosphorothioate, methylation of C not given here) [[CDKN2B-AS1]1415]”, the “TLR8-500 nM: averaged NF-κB-Luciferase relative to R848” value (HEK-TLR8) is recorded as 1.60 fold. Take “mG*mU*mG*mU*mU*T*T*T*A*A*T*T*T*T*G*mU*mA*mG*mA*mG (mG*mU*mG*mU*mU*dT*dT*dT*dA*dA*dT*dT*dT*dT*dG*mU*mA*mG*mA*mG) [[CDKN2B-AS1]611]”: the “TLR8-500 nM: averaged NF-κB-Luciferase relative to R848” value (HEK-TLR8) turned out to be 1.88 fold. For the substance “mU*mA*mU*mU*mU*C*C*A*C*A*T*G*C*C*C*mA*mG*mU*mG*mU (mU*mA*mU*mU*mU*dC*dC*dA*dC*dA*dT*dG*dC*dC*dC*mA*mG*mU*mG*mU; antisense) [[CDKN2B-AS1]627]”, the “TLR8-500 nM: averaged NF-κB-Luciferase relative to R848” value (HEK-TLR8) is 3.87 fold.
